From ChEMBL document CHEMBL1201862, “PubChem BioAssay data set” (2004)
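Cells were grown in 96-well plates and exposed to each compound for 48 hours at five concentrations; endpoints were interpolated linearly between bracketing concentrations, or set to the highest concentration if not reached. The concentration for 50% growth inhibition is given as GI50.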 The source made the active and inactive calls. No stated cut-off is given here; in the data, active = GI50 up to about 1.1 µM and inactive = higher.

What was measured:
Assay in all cases: NCI anticancer screen, dose series, 48 h
ACHN = test system: ACHN
CAKI-1 = test system: CAKI-1
CCRF-CEM = test system: CCRF-CEM
DLD-1 = test system: DLD-1
EKVX = test system: EKVX
HT-29 = test system: HT-29
LOX IMVI = test system: LOX IMVI
Malme-3M = test system: Malme-3M
OVCAR-3 = test system: OVCAR-3
OVCAR-5 = test system: OVCAR-5
OVCAR-8 = test system: OVCAR-8
RXF 393 = test system: RXF 393
SK-MEL-5 = test system: SK-MEL-5
SR = test system: SR
SW-620 = test system: SW-620
TK-10 = test system: TK-10
UACC-62 = test system: UACC-62
SK-OV-3 = test system: SK-OV-3
UO-31 = test system: UO-31

O=C1CCC2(c3ccccc3)OCC([C@@H](O)c3ccccc3)N12 (stereo partly specified)
GI50 (ACHN): > 100 µM (inactive)
GI50 (CAKI-1): > 100 µM (inactive)
GI50 (CCRF-CEM): > 100 µM (inactive)
GI50 (DLD-1): > 100 µM (inactive)
GI50 (EKVX): > 100 µM (inactive)
GI50 (HT-29): > 100 µM (inactive)
GI50 (LOX IMVI): > 100 µM (inactive)
GI50 (Malme-3M): > 100 µM (inactive)
GI50 (OVCAR-3): > 100 µM (inactive)
GI50 (OVCAR-5): > 100 µM (inactive)
GI50 (OVCAR-8): > 100 µM (inactive)
GI50 (RXF 393): > 100 µM (inactive)
GI50 (SK-MEL-5): > 100 µM (inactive)
GI50 (SR): > 100 µM (inactive)
GI50 (SW-620): > 100 µM (inactive)
GI50 (TK-10): > 100 µM (inactive)
GI50 (UACC-62): > 100 µM (inactive)

O=[N+]([O-])c1cc(-c2nnc(S)[nH]2)ccc1O
GI50 (ACHN): > 100 µM (inactive)
GI50 (CAKI-1): > 100 µM (inactive)
GI50 (CCRF-CEM): > 100 µM (inactive)
GI50 (DLD-1): > 100 µM (inactive)
GI50 (EKVX): > 100 µM (inactive)
GI50 (HT-29): > 100 µM (inactive)
GI50 (LOX IMVI): > 100 µM (inactive)
GI50 (Malme-3M): > 100 µM (inactive)
GI50 (OVCAR-5): > 100 µM (inactive)
GI50 (RXF 393): > 100 µM (inactive)
GI50 (SK-MEL-5): > 100 µM (inactive)
GI50 (SK-OV-3): > 100 µM (inactive)
GI50 (SW-620): 4.06 µM (inactive)
GI50 (TK-10): > 100 µM (inactive)
GI50 (UACC-62): > 100 µM (inactive)
GI50 (UO-31): > 100 µM (inactive)

C[N+](C)(C)CC1CCCC/C1=N\O (stereo unspecified)
GI50 (ACHN): > 100 µM (inactive)
GI50 (CCRF-CEM): > 100 µM (inactive)
GI50 (DLD-1): > 100 µM (inactive)
GI50 (EKVX): > 100 µM (inactive)
GI50 (HT-29): > 100 µM (inactive)
GI50 (LOX IMVI): > 100 µM (inactive)
GI50 (Malme-3M): > 100 µM (inactive)
GI50 (OVCAR-3): > 100 µM (inactive)
GI50 (OVCAR-5): > 100 µM (inactive)
GI50 (OVCAR-8): > 100 µM (inactive)
GI50 (RXF 393): > 100 µM (inactive)
GI50 (SK-OV-3): > 100 µM (inactive)
GI50 (SW-620): > 100 µM (inactive)
GI50 (TK-10): > 100 µM (inactive)
GI50 (UACC-62): > 100 µM (inactive)
GI50 (UO-31): > 100 µM (inactive)

CC(C)C1CNC2N1C(=O)C2(C)OCc1ccccc1 (stereo unspecified)
GI50 (ACHN): > 100 µM (inactive)
GI50 (CCRF-CEM): > 100 µM (inactive)
GI50 (DLD-1): > 100 µM (inactive)
GI50 (EKVX): > 100 µM (inactive)
GI50 (HT-29): > 100 µM (inactive)
GI50 (LOX IMVI): > 100 µM (inactive)
GI50 (Malme-3M): > 100 µM (inactive)
GI50 (OVCAR-3): > 100 µM (inactive)
GI50 (OVCAR-8): > 100 µM (inactive)
GI50 (RXF 393): > 100 µM (inactive)
GI50 (SK-MEL-5): > 100 µM (inactive)
GI50 (SR): 78.5 µM (inactive)
GI50 (SW-620): > 100 µM (inactive)
GI50 (TK-10): > 100 µM (inactive)
GI50 (UACC-62): > 100 µM (inactive)
GI50 (UO-31): 81.5 µM (inactive)

COc1cc(NCC(C#N)C#N)ccc1/N=N/c1ccc(Cl)cc1
GI50 (ACHN): 31.8 µM (inactive)
GI50 (CCRF-CEM): 18.9 µM (inactive)
GI50 (DLD-1): 29.4 µM (inactive)
GI50 (EKVX): 21.1 µM (inactive)
GI50 (HT-29): 16.4 µM (inactive)
GI50 (LOX IMVI): 18.2 µM (inactive)
GI50 (Malme-3M): 35.2 µM (inactive)
GI50 (OVCAR-3): 20.6 µM (inactive)
GI50 (OVCAR-5): 21.8 µM (inactive)
GI50 (OVCAR-8): 29.7 µM (inactive)
GI50 (RXF 393): 43.6 µM (inactive)
GI50 (SK-MEL-5): 23 µM (inactive)
GI50 (SK-OV-3): 29.9 µM (inactive)
GI50 (SR): 12.8 µM (inactive)
GI50 (SW-620): 20.8 µM (inactive)
GI50 (TK-10): 29.8 µM (inactive)
GI50 (UACC-62): 10.6 µM (inactive)
GI50 (UO-31): 16.9 µM (inactive)

O=C(O)c1ccc([Se][Se]c2ccc(C(=O)O)cc2)cc1
GI50 (CAKI-1): 19.4 µM (inactive)
GI50 (DLD-1): 34 µM (inactive)
GI50 (EKVX): 23.6 µM (inactive)
GI50 (Malme-3M): 26.1 µM (inactive)
GI50 (OVCAR-3): 22.5 µM (inactive)
GI50 (OVCAR-5): 23.5 µM (inactive)
GI50 (OVCAR-8): 28.6 µM (inactive)
GI50 (RXF 393): 21.2 µM (inactive)
GI50 (SR): > 10 µM (inactive)
GI50 (SW-620): 32.4 µM (inactive)
GI50 (TK-10): 22.7 µM (inactive)
GI50 (UACC-62): 19.3 µM (inactive)
GI50 (UO-31): 29.9 µM (inactive)

COc1cc(O)c2c(c1O)C(=O)c1cc(C)ncc1C2=O
GI50 (ACHN): 24.3 µM (inactive)
GI50 (CCRF-CEM): 19.2 µM (inactive)
GI50 (DLD-1): 16 µM (inactive)
GI50 (EKVX): 40.5 µM (inactive)
GI50 (HT-29): 15.3 µM (inactive)
GI50 (LOX IMVI): 13.9 µM (inactive)
GI50 (Malme-3M): 9.71 µM (inactive)
GI50 (OVCAR-3): 16.7 µM (inactive)
GI50 (OVCAR-5): 44.9 µM (inactive)
GI50 (OVCAR-8): 21.8 µM (inactive)
GI50 (RXF 393): 18.5 µM (inactive)
GI50 (SK-MEL-5): 11.6 µM (inactive)
GI50 (SK-OV-3): 9.89 µM (inactive)
GI50 (SW-620): 20.2 µM (inactive)
GI50 (TK-10): > 50 µM (inactive)
GI50 (UACC-62): 17.3 µM (inactive)
GI50 (UO-31): 14.3 µM (inactive)

COc1ccc2nc(-c3cccs3)cc(C(O)CN3CCSCC3)c2c1 (stereo unspecified)
GI50 (ACHN): 13.5 µM (inactive)
GI50 (CAKI-1): 17.3 µM (inactive)
GI50 (CCRF-CEM): 11.9 µM (inactive)
GI50 (DLD-1): 23.6 µM (inactive)
GI50 (EKVX): 29 µM (inactive)
GI50 (HT-29): 25 µM (inactive)
GI50 (LOX IMVI): 16.5 µM (inactive)
GI50 (Malme-3M): 15.2 µM (inactive)
GI50 (OVCAR-3): 36.8 µM (inactive)
GI50 (OVCAR-5): 19.2 µM (inactive)
GI50 (OVCAR-8): 16.6 µM (inactive)
GI50 (RXF 393): 45 µM (inactive)
GI50 (SK-MEL-5): 16.4 µM (inactive)
GI50 (SK-OV-3): 39.6 µM (inactive)
GI50 (SW-620): 30.7 µM (inactive)
GI50 (TK-10): 31.2 µM (inactive)
GI50 (UACC-62): 17.7 µM (inactive)
GI50 (UO-31): 18.7 µM (inactive)

Clc1ccc2[nH]c(CCSCCc3nc4ccc(Cl)cc4[nH]3)nc2c1
GI50 (ACHN): 2.25 µM (inactive)
GI50 (CAKI-1): 4.55 µM (inactive)
GI50 (CCRF-CEM): 10.8 µM (inactive)
GI50 (DLD-1): 15.4 µM (inactive)
GI50 (EKVX): 16.9 µM (inactive)
GI50 (HT-29): 11.6 µM (inactive)
GI50 (LOX IMVI): 12.8 µM (inactive)
GI50 (OVCAR-5): 12.4 µM (inactive)
GI50 (OVCAR-8): 14.2 µM (inactive)
GI50 (RXF 393): 17.5 µM (inactive)
GI50 (SK-MEL-5): 5.87 µM (inactive)
GI50 (SK-OV-3): 18.1 µM (inactive)
GI50 (SR): 0.181 µM (active)
GI50 (SW-620): 14 µM (inactive)
GI50 (TK-10): 10.3 µM (inactive)
GI50 (UACC-62): 5.64 µM (inactive)
GI50 (UO-31): 11.4 µM (inactive)

CC1CC(=O)C(CC(=O)O)[C@H]1C(C(=O)C(=O)Nc1cc(Cl)ccc1Cl)[N+](=O)[O-] (stereo partly specified)
GI50 (ACHN): > 100 µM (inactive)
GI50 (CAKI-1): > 100 µM (inactive)
GI50 (CCRF-CEM): > 100 µM (inactive)
GI50 (DLD-1): > 100 µM (inactive)
GI50 (EKVX): > 100 µM (inactive)
GI50 (HT-29): > 100 µM (inactive)
GI50 (LOX IMVI): > 100 µM (inactive)
GI50 (OVCAR-3): > 100 µM (inactive)
GI50 (OVCAR-5): > 100 µM (inactive)
GI50 (OVCAR-8): > 100 µM (inactive)
GI50 (RXF 393): > 100 µM (inactive)
GI50 (SK-MEL-5): > 100 µM (inactive)
GI50 (SK-OV-3): > 100 µM (inactive)
GI50 (SR): > 100 µM (inactive)
GI50 (SW-620): > 100 µM (inactive)
GI50 (TK-10): > 100 µM (inactive)
GI50 (UACC-62): > 100 µM (inactive)
GI50 (UO-31): > 100 µM (inactive)

COc1cc2nc(-c3cccc(N(C)C)c3)cc(O)c2cc1OC
GI50 (ACHN): 14.5 µM (inactive)
GI50 (CCRF-CEM): 3.87 µM (inactive)
GI50 (DLD-1): 4.5 µM (inactive)
GI50 (EKVX): 16.5 µM (inactive)
GI50 (HT-29): 3.2 µM (inactive)
GI50 (LOX IMVI): 6.79 µM (inactive)
GI50 (Malme-3M): 2.23 µM (inactive)
GI50 (OVCAR-3): 1.52 µM (inactive)
GI50 (OVCAR-5): 5.18 µM (inactive)
GI50 (OVCAR-8): 6.03 µM (inactive)
GI50 (RXF 393): 2.21 µM (inactive)
GI50 (SK-MEL-5): 4.36 µM (inactive)
GI50 (SK-OV-3): 3.7 µM (inactive)
GI50 (SR): 5.14 µM (inactive)
GI50 (SW-620): 4.09 µM (inactive)
GI50 (TK-10): > 100 µM (inactive)
GI50 (UACC-62): 3.44 µM (inactive)
GI50 (UO-31): 5.65 µM (inactive)

Nc1ccc(O)c2c1C(=O)c1c(N)ccc(O)c1C2=O
GI50 (ACHN): > 100 µM (inactive)
GI50 (CAKI-1): > 100 µM (inactive)
GI50 (CCRF-CEM): > 100 µM (inactive)
GI50 (DLD-1): > 100 µM (inactive)
GI50 (EKVX): > 100 µM (inactive)
GI50 (LOX IMVI): > 100 µM (inactive)
GI50 (Malme-3M): > 100 µM (inactive)
GI50 (OVCAR-3): > 100 µM (inactive)
GI50 (OVCAR-5): > 100 µM (inactive)
GI50 (OVCAR-8): > 100 µM (inactive)
GI50 (RXF 393): > 100 µM (inactive)
GI50 (SK-MEL-5): > 100 µM (inactive)
GI50 (SK-OV-3): > 100 µM (inactive)
GI50 (SW-620): > 100 µM (inactive)
GI50 (TK-10): > 100 µM (inactive)
GI50 (UACC-62): > 100 µM (inactive)
GI50 (UO-31): > 100 µM (inactive)
